Assay results: patent US20170121315A1, “HETEROBICYCLICALLY SUBSTITUTED 4-OXOBUTANE ACID DERIVATIVES AND USE THEREOF” (priority 2014, published 2017)

Biological target: T1, human macrophage elastase (HME/hMMP-12) (Homo sapiens, UniProt P39900)
T1 construct: purchased R&D Systems 917-MP
Experiment: In vitro HME inhibition test (standard or high-sensitivity)
Assay type: biochemical
Conditions: in some cases mean values, rounded to two significant figures
Outline: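 Autoactivated HME (0.5 nM; high-sensitivity format 0.05 nM, ~16 h) with 5 μM quenched Mca-PLGLEEA-Dap(Dnp)-NH2 substrate in HEPES pH 7.4, NaCl, CaCl2, ZnCl2, EDTA, Brij buffer, 2 h at 37° C. Fluorescence at ex 323/em 393 nm; IC50 from signal versus concentration.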

T1 sequence (P39900 106-470): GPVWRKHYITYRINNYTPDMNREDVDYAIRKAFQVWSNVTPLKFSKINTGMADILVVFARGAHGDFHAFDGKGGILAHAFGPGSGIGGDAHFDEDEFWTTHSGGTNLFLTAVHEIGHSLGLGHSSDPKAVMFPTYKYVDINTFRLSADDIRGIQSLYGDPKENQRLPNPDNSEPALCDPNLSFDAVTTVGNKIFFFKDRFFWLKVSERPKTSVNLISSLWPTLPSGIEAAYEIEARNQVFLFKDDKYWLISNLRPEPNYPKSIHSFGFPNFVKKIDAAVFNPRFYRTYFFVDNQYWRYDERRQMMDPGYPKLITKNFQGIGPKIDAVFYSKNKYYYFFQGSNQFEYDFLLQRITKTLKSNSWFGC

| Compound | IC50 [nM] |
| --- | --- |
| CCCCOc1ccc2cc(C(=O)CC(CCn3nnc4ccccc4c3=O)C(=O)O)oc2c1 (single isomer, unassigned; (+)) [Example 63, (+)-4-(6-Butoxy-1-benzofur-2-yl)-4-oxo-2-[2-(4-oxo-1,2,3-benzotriazin-3(4H)-yl)ethyl]butanoic acid] | 2.2 |
| CCCCCCCOc1ccc2c(C(=O)CC(CCn3nnc4ccccc4c3=O)C(=O)O)coc2c1 (single isomer, unassigned; (+)) [Example 103, (+)-4-[6-(Heptyloxy)-1-benzofur-3-yl]-4-oxo-2-[2-(4-oxo-1,2,3-benzotriazin-3(4H)-yl)ethyl]butanoic acid acid] | 0.23 |
| CC(C)COc1ccc2c(C(=O)CC(CCn3nnc4ccccc4c3=O)C(=O)O)coc2c1 (single isomer, unassigned; (+)) [Example 105, (+)-4-(6-Isobutoxy-1-benzofur-3-yl)-4-oxo-2-[2-(4-oxo-1,2,3-benzotriazin-3(4H)-yl)ethyl]butanoic acid] | 0.21 |
| CCCCOc1ccc2c(C(=O)CC(CCn3nnc4ccccc4c3=O)C(=O)O)coc2c1 (single isomer, unassigned; (+)) [Example 108, (+)-4-(6-Butoxy-1-benzofur-3-yl)-4-oxo-2-[2-(4-oxo-1,2,3-benzotriazin-3(4H)-yl)ethyl]butanoic acid] | 0.23 |
| O=C(CC(CCn1nnc2ccccc2c1=O)C(=O)O)c1cc2cc(OCCc3ccccc3)ccc2o1 (single isomer, unassigned; (-)) [Example 20, (−)-4-Oxo-2-[2-(4-oxo-1,2,3-benzotriazin-3(4H)-yl)ethyl]-4-[5-(2-phenylethoxy)-1-benzofur-2-yl]butanoic acid] | 860 |
| O=C(CC(CCn1nnc2ccccc2c1=O)C(=O)O)c1cc2cc(OCc3ccc(F)cc3)ccc2o1 (single isomer, unassigned; (-)) [Example 24, (−)-4-{5-[(4-Fluorobenzyl)oxy]-1-benzofur-2-yl}-4-oxo-2-[2-(4-oxo-1,2,3-benzotriazin-3(4H)-yl)ethyl]butanoic acid] | 210 |
| O=C(CC(CCn1nnc2ccccc2c1=O)C(=O)O)c1cc2cc(OCc3ccc(Cl)c(Cl)c3)ccc2o1 (single isomer, unassigned; (-)) [Example 26, (−)-4-{5-[(3,4-Dichlorobenzyl)oxy]-1-benzofur-2-yl}-4-oxo-2-[2-(4-oxo-1,2,3-benzotriazin-3(4H)-yl)ethyl]butanoic acid] | 160 |
| O=C(CC(CCn1nnc2ccccc2c1=O)C(=O)O)c1cc2cc(OCc3ccccc3)ccc2o1 (single isomer, unassigned; (-)) [Example 29, (−)-4-[5-(Benzyloxy)-1-benzofur-2-yl]-4-oxo-2-[2-(4-oxo-1,2,3-benzotriazin-3(4H)-yl)ethyl]butanoic acid] | 770 |
| NC(=O)c1cccc(COc2ccc3oc(C(=O)CC(CCn4nnc5ccccc5c4=O)C(=O)O)cc3c2)c1 (single isomer, unassigned; (-)) [Example 33, (−)-4-{5-[(3-Carbamoylbenzyl)oxy]-1-benzofur-2-yl}-4-oxo-2-[2-(4-oxo-1,2,3-benzotriazin-3(4H)-yl)ethyl]butanoic acid] | 350 |
| CCCCCOc1ccc2cc(C(=O)CC(CCn3nnc4ccccc4c3=O)C(=O)O)oc2c1 (single isomer, unassigned; (-)) [Example 56, (−)-4-Oxo-2-[2-(4-oxo-1,2,3-benzotriazin-3(4H)-yl)ethyl]-4-[6-(pentyloxy)-1-benzofur-2-yl]butanoic acid] | 1400 |
| CCCCOc1ccc2cc(C(=O)CC(CCn3nnc4ccccc4c3=O)C(=O)O)oc2c1 (single isomer, unassigned; (-)) [Example 62, (−)-4-(6-Butoxy-1-benzofur-2-yl)-4-oxo-2-[2-(4-oxo-1,2,3-benzotriazin-3(4H)-yl)ethyl]butanoic acid] | 570 |
| CCCCCCOc1ccc2cc(C(=O)CC(CCn3nnc4ccccc4c3=O)C(=O)O)oc2c1 (single isomer, unassigned; (-)) [Example 65, (−)-4-[6-(Hexyloxy)-1-benzofur-2-yl]-4-oxo-2-[2-(4-oxo-1,2,3-benzotriazin-3(4H)-yl)ethyl]butanoic acid] | 340 |
| CCCCCCCOc1ccc2c(C(=O)CC(CCn3nnc4ccccc4c3=O)C(=O)O)coc2c1 (single isomer, unassigned; (-)) [Example 102, (−)-4-[6-(Heptyloxy)-1-benzofur-3-yl]-4-oxo-2-[2-(4-oxo-1,2,3-benzotriazin-3(4H)-yl)ethyl]butanoic acid] | 2100 |
| CC(C)COc1ccc2c(C(=O)CC(CCn3nnc4ccccc4c3=O)C(=O)O)coc2c1 (single isomer, unassigned; (-)) [Example 106, (−)-4-(6-Isobutoxy-1-benzofur-3-yl)-4-oxo-2-[2-(4-oxo-1,2,3-benzotriazin-3(4H)-yl)ethyl]butanoic acid] | 31 |
| CCCCOc1ccc2c(C(=O)CC(CCn3nnc4ccccc4c3=O)C(=O)O)coc2c1 (single isomer, unassigned; (-)) [Example 109, (−)-4-(6-Butoxy-1-benzofur-3-yl)-4-oxo-2-[2-(4-oxo-1,2,3-benzotriazin-3(4H)-yl)ethyl]butanoic acid] | 10 |
| O=C(CC(CCn1nnc2ccccc2c1=O)C(=O)O)c1cc2cc(OCC3CCCCC3)ccc2o1 (single isomer, unassigned; enantiomer 1) [Example 9, (−)-4-[5-(Cyclohexylmethoxy)-1-benzofur-2-yl]-4-oxo-2-[2-(4-oxo-1,2,3-benzotriazin-3(4H)-yl)ethyl]butanoic acid (enantiomer 1)] | 370 |
| O=C(CC(CCn1nnc2ccccc2c1=O)C(=O)O)c1cc2cc(OCCCC(F)(F)F)ccc2o1 (single isomer, unassigned; enantiomer 1) [Example 12, (−)-4-Oxo-2-[2-(4-oxo-1,2,3-benzotriazin-3(4H)-yl)ethyl]-4-[5-(4,4,4-trifluorobutoxy)-1-benzofur-2-yl]butanoic acid (enantiomer 1)] | 900 |

Other lines, results leading:

| IC50 [nM] | Compound |
| --- | --- |
| 2.4 | CCCCCCOc1ccc2cc(C(=O)CC(CCn3nnc4ccccc4c3=O)C(=O)O)oc2c1 (single isomer, unassigned; (+)) [Example 66, (+)-4-[6-(Hexyloxy)-1-benzofur-2-yl]-4-oxo-2-[2-(4-oxo-1,2,3-benzotriazin-3(4H)-yl)ethyl]butanoic acid] |
| 0.38 | O=C(CC(CCn1nnc2ccccc2c1=O)C(=O)O)c1coc2cc(OCc3ccccc3)ccc12 (single isomer, unassigned; (+)) [Example 85, (+)-4-[6-(Benzyloxy)-1-benzofur-3-yl]-4-oxo-2-[2-(4-oxo-1,2,3-benzotriazin-3(4H)-yl)ethyl]butanoic acid] |
| 1.1 | CCCOc1ccc2c(C(=O)CC(CCn3nnc4ccccc4c3=O)C(=O)O)coc2c1 (single isomer, unassigned; (+)) [Example 88, (+)-4-Oxo-2-[2-(4-oxo-1,2,3-benzotriazin-3(4H)-yl)ethyl]-4-(6-propoxy-1-benzofur-3-yl)butanoic acid] |
| 0.81 | O=C(CC(CCn1nnc2ccccc2c1=O)C(=O)O)c1coc2cc(OCC3CCOCC3)ccc12 (single isomer, unassigned; (+)) [Example 96, (+)-4-Oxo-2-[2-(4-oxo-1,2,3-benzotriazin-3(4H)-yl)ethyl]-4-[6-(tetrahydro-2H-pyran-4-ylmethoxy)-1-benzofur-3-yl]butanoic acid] |
| 890 | CCCCCCCOc1ccc2cc(C(=O)CC(CCn3nnc4ccccc4c3=O)C(=O)O)oc2c1 (single isomer, unassigned; (-)) [Example 68, (−)-4-[6-(Heptyloxy)-1-benzofur-2-yl]-4-oxo-2-[2-(4-oxo-1,2,3-benzotriazin-3(4H)-yl)ethyl]butanoic acid] |
| 1900 | O=C(CC(CCn1nnc2ccccc2c1=O)C(=O)O)c1coc2cc(OCC3CCCC3)ccc12 (single isomer, unassigned; (-)) [Example 79, (−)-4-[6-(Cyclopentylmethoxy)-1-benzofur-3-yl]-4-oxo-2-[2-(4-oxo-1,2,3-benzotriazin-3(4H)-yl)ethyl]butanoic acid] |
| 1.4 | O=C(CC(CCn1nnc2ccccc2c1=O)C(=O)O)c1coc2cc(OCC3CCCCC3)ccc12 (single isomer, unassigned; (-)) [Example 83, (−)-4-[6-(Cyclohexylmethoxy)-1-benzofur-3-yl]-4-oxo-2-[2-(4-oxo-1,2,3-benzotriazin-3(4H)-yl)ethyl]butanoic acid] |
| 470 | CCCOc1ccc2c(C(=O)CC(CCn3nnc4ccccc4c3=O)C(=O)O)coc2c1 (single isomer, unassigned; (-)) [Example 87, (−)-4-Oxo-2-[2-(4-oxo-1,2,3-benzotriazin-3(4H)-yl)ethyl]-4-(6-propoxy-1-benzofur-3-yl)butanoic acid] |
| 25 | O=C(CC(CCn1nnc2ccccc2c1=O)C(=O)O)c1coc2cc(OCC3CCOCC3)ccc12 (single isomer, unassigned; (-)) [Example 97, (−)-4-Oxo-2-[2-(4-oxo-1,2,3-benzotriazin-3(4H)-yl)ethyl]-4-[6-(tetrahydro-2H-pyran-4-ylmethoxy)-1-benzofur-3-yl]butanoic acid] |
| 100 | CCCCCCOc1ccc2c(C(=O)CC(CCn3nnc4ccccc4c3=O)C(=O)O)coc2c1 (single isomer, unassigned; (-)) [Example 99, (−)-4-[6-(Hexyloxy)-1-benzofur-3-yl]-4-oxo-2-[2-(4-oxo-1,2,3-benzotriazin-3(4H)-yl)ethyl]butanoic acid] |
| 4300 | O=C(CC(CCn1nnc2ccccc2c1=O)C(=O)O)c1cc2ccc(OCC3CC3)cc2s1 (single isomer, unassigned; (-)) [Example 113, (−)-4-[6-(Cyclopropylmethoxy)-1-benzothiophen-2-yl]-4-oxo-2-[2-(4-oxo-1,2,3-benzotriazin-3(4H)-yl)ethyl]butanoic acid] |
